Laboratory results published in PubChem BioAssay AID256 (DTP/NCI, 2004).
Values joined by “and” are separate entries in the source; they are usually repeats but may differ in a detail not shown here. Equal entries are not always repeated. Toxic doses and inconclusive results are not listed. How the source made its calls: active means survival T/C of 150% or more; inactive means T/C below 125% in these data.

Tested on: CD2F1 mice, L1210 leukemia ip, survival T/C
Assay: NCI In Vivo Anticancer Drug Screen. Data for tumor model L1210 Leukemia (intraperitoneal) in CD2F1 (CDF1) mice
Conditions: higher = longer survival
Outline: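 Antitumor effect is scored in animals hosting a serially transplanted tumor. Values compare compound-dosed animals against vehicle-only controls as a simple quotient.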

[1] = endpoint: mean survival time, dose: 100.0 mg/kg/injection, schedule: Q01DX001 (ip), vehicle: saline
[2] = endpoint: mean survival time, dose: 12.5 mg/kg/injection, schedule: Q01DX009 (ip), vehicle: other
[3] = endpoint: mean survival time, dose: 25.0 mg/kg/injection, schedule: Q01DX009 (ip), vehicle: other
[4] = endpoint: mean survival time, dose: 50.0 mg/kg/injection, schedule: Q01DX009 (ip), vehicle: other
[5] = endpoint: mean survival time, dose: 50.0 mg/kg/injection, schedule: Q01DX009 (ip), vehicle: saline with Tween-80
[6] = endpoint: mean survival time, dose: 100.0 mg/kg/injection, schedule: Q01DX009 (ip), vehicle: other
[7] = endpoint: mean survival time, dose: 100.0 mg/kg/injection, schedule: Q01DX009 (ip), vehicle: saline with Tween-80
[8] = endpoint: mean survival time, dose: 200.0 mg/kg/injection, schedule: Q01DX009 (ip), vehicle: other
[9] = endpoint: mean survival time, dose: 200.0 mg/kg/injection, schedule: Q01DX009 (ip), vehicle: saline with Tween-80
[10] = endpoint: mean survival time, dose: 400.0 mg/kg/injection, schedule: Q01DX009 (ip), vehicle: saline with Tween-80
[11] = endpoint: mean survival time, dose: 100.0 mg/kg/injection, schedule: Q04DX003 (ip), vehicle: saline with Tween-80
[12] = endpoint: mean survival time, dose: 200.0 mg/kg/injection, schedule: Q04DX003 (ip), vehicle: saline with Tween-80
[13] = endpoint: mean survival time, dose: 400.0 mg/kg/injection, schedule: Q04DX003 (ip), vehicle: saline with Tween-80
[14] = endpoint: mean survival time, dose: 100.0 mg/kg/injection, schedule: Q01DX001 (ip), vehicle: saline with Tween-80
[15] = endpoint: mean survival time, dose: 200.0 mg/kg/injection, schedule: Q01DX001 (ip), vehicle: saline with Tween-80
[16] = endpoint: mean survival time, dose: 400.0 mg/kg/injection, schedule: Q01DX001 (ip), vehicle: saline with Tween-80

Measured: T/C

CN(C)CCC(=O)c1ccco1
inactive: endpoint: mean survival time, dose: 25.0 mg/kg/injection, schedule: Q01DX001 (ip), vehicle: saline 104 % of control | endpoint: mean survival time, dose: 50.0 mg/kg/injection, schedule: Q01DX001 (ip), vehicle: saline 95 % of control | [1] 97 % of control and 103 % of control

CCCCCC(O)C1C(=O)OC(C)C(O)/C=C/C=C/C=C/C=C\C=C(\C)C(O)CC(O)CC(O)CC(O)CC(O)CC(O)CC1O (configuration not stated)
inactive: endpoint: median survival time, dose: 3.12 mg/kg/injection, schedule: Q01DX009 (ip), vehicle: distilled water + alcohol 104 % of control | endpoint: median survival time, dose: 6.25 mg/kg/injection, schedule: Q01DX009 (ip), vehicle: distilled water + alcohol 104 % of control | endpoint: median survival time, dose: 12.5 mg/kg/injection, schedule: Q01DX009 (ip), vehicle: distilled water + alcohol 104 % of control | endpoint: median survival time, dose: 25.0 mg/kg/injection, schedule: Q01DX009 (ip), vehicle: distilled water + alcohol 100 % of control

CCOC(=O)CN1C(=O)c2ccccc2C1=O
inactive: [2] 97 % of control | [3] 97 % of control | [4] 98 % of control | [5] 88 % of control | [6] 93 % of control | [7] 103 % of control | [8] 97 % of control | [9] 92 % of control

Cc1cnccc1N=Nc1ccc(N(C)C)cc1
inactive: [7] 117 % of control | [9] 102 % of control | [10] 96 % of control

CC1CCc2c(nc(C#N)c(=N)n2O)C1 (configuration not stated)
inactive: endpoint: mean survival time, dose: 100.0 mg/kg/injection, schedule: Q04DX003 (ip), vehicle: Klucel (hydroxypropylcellulose) (HPC) 102 % of control | endpoint: mean survival time, dose: 200.0 mg/kg/injection, schedule: Q04DX003 (ip), vehicle: Klucel (hydroxypropylcellulose) (HPC) 106 % of control | endpoint: mean survival time, dose: 400.0 mg/kg/injection, schedule: Q04DX003 (ip), vehicle: Klucel (hydroxypropylcellulose) (HPC) 98 % of control

CC(=O)OC1CCC2(C)C(=CC=C3C2CCC2(C)C3CC3OC4(CCC(C)CO4)C(C)C32)C1 (configuration not stated)
inactive: endpoint: mean survival time, dose: 50.0 mg/kg/injection, schedule: Q01DX009 (ip), vehicle: Klucel (hydroxypropylcellulose) (HPC) 92 % of control | endpoint: mean survival time, dose: 100.0 mg/kg/injection, schedule: Q01DX009 (ip), vehicle: Klucel (hydroxypropylcellulose) (HPC) 97 % of control | endpoint: mean survival time, dose: 200.0 mg/kg/injection, schedule: Q01DX009 (ip), vehicle: Klucel (hydroxypropylcellulose) (HPC) 94 % of control

O=C(Nc1cccc(Cl)c1)NC1CCC(CC2CCCCC2)CC1 (configuration not stated)
inactive: [11] 95 % of control | [12] 95 % of control | [13] 100 % of control

COc1cccc(C(=O)c2ccncc2C(=O)O)c1OC
inactive: [2] 110 % of control | [3] 100 % of control | [4] 93 % of control | [6] 96 % of control | [8] 96 % of control

C[As](C)SCC1OC(n2ncc(=O)[nH]c2=O)C2OC(C)(C)OC12 (configuration not stated)
inactive: endpoint: median survival time, dose: 12.5 mg/kg/injection, schedule: Q01DX005 (ip), vehicle: distilled water + Tween-80 97 % of control | endpoint: median survival time, dose: 25.0 mg/kg/injection, schedule: Q01DX005 (ip), vehicle: distilled water + Tween-80 105 % of control | endpoint: median survival time, dose: 50.0 mg/kg/injection, schedule: Q01DX005 (ip), vehicle: distilled water + Tween-80 94 % of control | endpoint: median survival time, dose: 100.0 mg/kg/injection, schedule: Q01DX005 (ip), vehicle: distilled water + Tween-80 101 % of control | endpoint: median survival time, dose: 200.0 mg/kg/injection, schedule: Q01DX005 (ip), vehicle: distilled water + Tween-80 101 % of control

CCOC(=O)/C(C(C)=N)=C(\C)O
inactive: [14] 100 % of control | [7] 101 % of control | [15] 98 % of control | [9] 104 % of control | [16] 105 % of control

CCN(CC)Cc1cc(Nc2ncnc3scc(C)c23)ccc1O
inactive: [11] 100 % of control | [12] 97 % of control | [13] 100 % of control

O=C(O)CCC(=O)c1ccccc1
inactive: [5] 101 % of control | [7] 106 % of control | [9] 106 % of control

C/C=C(\C)c1cc(=O)c2c(C)cc3c(c2o1)C(OC)(OC(C)=O)c1c(O)c(C2CC(C)(N(C)C)C(OC(C)=O)C(C)O2)cc(C2CC(N(C)C)C(OC(C)=O)C(C)O2)c1C3=O (configuration not stated)
inactive: endpoint: mean survival time, dose: 50.0 mg/kg/injection, schedule: Q04DX003 (ip), vehicle: saline with Tween-80 112 % of control | [11] 110 % of control | endpoint: mean survival time, dose: 100.0 mg/kg/injection, schedule: Q04DX003 (ip), vehicle: saline 109 % of control | [12] 97 % of control | endpoint: mean survival time, dose: 200.0 mg/kg/injection, schedule: Q04DX003 (ip), vehicle: saline 91 % of control

C1CCC2[N-]CC3CCCCC3[N-]CC3CCCCC3[N-]CC3CCCCC3[N-]CC2C1.[Cu] (configuration not stated)
inactive: endpoint: mean survival time, dose: 0.39 mg/kg/injection, schedule: Q01DX009 (ip), vehicle: saline 118 % of control | endpoint: mean survival time, dose: 0.78 mg/kg/injection, schedule: Q01DX009 (ip), vehicle: saline 116 % of control | endpoint: mean survival time, dose: 1.56 mg/kg/injection, schedule: Q01DX009 (ip), vehicle: saline 104 % of control | endpoint: mean survival time, dose: 3.12 mg/kg/injection, schedule: Q01DX009 (ip), vehicle: saline 118 % of control | endpoint: mean survival time, dose: 6.25 mg/kg/injection, schedule: Q01DX009 (ip), vehicle: saline 119 % of control

O=C1CC2C=CCC12 (configuration not stated)
inactive: [7] 98 % of control | [9] 98 % of control | [10] 100 % of control

CN(C)C(=S)Oc1c(S(=O)(=O)F)ccc(Cl)c1Cl
inactive: endpoint: mean survival time, dose: 100.0 mg/kg/injection, schedule: Q04DX002 (ip), vehicle: saline with Tween-80 91 % of control | endpoint: mean survival time, dose: 200.0 mg/kg/injection, schedule: Q04DX002 (ip), vehicle: saline with Tween-80 91 % of control | endpoint: mean survival time, dose: 400.0 mg/kg/injection, schedule: Q04DX002 (ip), vehicle: saline with Tween-80 97 % of control

CCCN(CCC)S(=O)(=O)c1ccc(NC(=O)Oc2ccc([N+](=O)[O-])cc2)cc1
inactive: [1] 94 % of control | endpoint: mean survival time, dose: 200.0 mg/kg/injection, schedule: Q01DX001 (ip), vehicle: saline 100 % of control | endpoint: mean survival time, dose: 400.0 mg/kg/injection, schedule: Q01DX001 (ip), vehicle: saline 95 % of control

COC(=O)/C=C\n1cnc2ccccc21
inactive: endpoint: mean survival time, dose: 75.0 mg/kg/injection, schedule: Q01DX009 (ip), vehicle: other 95 % of control | endpoint: mean survival time, dose: 150.0 mg/kg/injection, schedule: Q01DX009 (ip), vehicle: other 101 % of control | endpoint: mean survival time, dose: 300.0 mg/kg/injection, schedule: Q01DX009 (ip), vehicle: other 110 % of control

N#CCCn1ccc2ccccc21
inactive: [6] 98 % of control | [8] 104 % of control | endpoint: mean survival time, dose: 400.0 mg/kg/injection, schedule: Q01DX009 (ip), vehicle: other 98 % of control

NCc1cccc(-c2nc3ncnc(N)c3[nH]2)c1
inactive: endpoint: mean survival time, dose: 50.0 mg/kg/injection, schedule: Q01DX009 (ip), vehicle: saline 101 % of control | endpoint: mean survival time, dose: 100.0 mg/kg/injection, schedule: Q01DX009 (ip), vehicle: saline 105 % of control

COc1cc(C2c3cc4c(c(OC5OC6CO[C@@H](c7cccs7)OC6C(O)C5O)c3C[C@@H]3COC(=O)[C@@H]23)OCO4)cc(OC)c1O (some centres not stated)
inactive: endpoint: median survival time, dose: 0.8 mg/kg/injection, schedule: Q01DX005 (ip), vehicle: saline with Tween-80 104 % of control | endpoint: median survival time, dose: 1.6 mg/kg/injection, schedule: Q01DX005 (ip), vehicle: saline with Tween-80 100 % of control | endpoint: median survival time, dose: 3.2 mg/kg/injection, schedule: Q01DX005 (ip), vehicle: saline with Tween-80 107 % of control | endpoint: median survival time, dose: 6.4 mg/kg/injection, schedule: Q01DX005 (ip), vehicle: saline with Tween-80 107 % of control

O=C(/C=C\c1ccc([N+]([O-])=Nc2ccc(/C=C/C(=O)c3ccccc3)cc2)cc1)c1ccccc1
inactive: [14] 102 % of control | [15] 86 % of control | [16] 98 % of control
